Measured values published in a melting point compilation (Tetko et al.; mined from patent text by program, amines drawn as free bases though some values may be those of a salt).

melting point [°C]	Structure (SMILES)
118 to 120	O=C(Cl)c1ccc(NC(=O)c2ccccc2-c2ccccc2)cc1
241 to 242	O=C(CCC(=O)c1ccc(CCNS(=O)(=O)c2ccccc2)cc1)Nc1nnn[nH]1
94 to 97	COc1cc(C(Cn2ccnc2)Sc2ccc(C(=O)O)cc2)cc(OC)c1OC (stereo unspecified)
120 to 121	O=C(O)[C@H](Cc1ccc(C(F)(F)F)cc1)[C@@H](O)c1ccc(F)cc1F (racemic)
108 to 109	Fc1cccc(N=C2SCCN2C(=S)Nc2cccc(F)c2)c1
120 to 122	CC(=O)NC1CCC2C(C1)c1c(OC(C)=O)cc(OC(C)CCCc3ccccc3)cc1N(C)C2C (stereo unspecified)
> 300	O=C(O)CN=C(O)c1ccc(C(O)=NCC(=O)O)c2c(C(=O)O)ccc(C(=O)O)c12
282 to 284	Sc1nc2cnc3ccccc3c2s1
139 to 140	CC(=O)N(C(C)=O)c1nc2n(n1)CCc1ccccc1-2
220	COc1ccccc1C1=C(C#N)C(c2ccccc2OC)c2c[nH]nc2N1 (stereo unspecified)
93 to 96	CCNC(=O)c1c(Br)csc1[Si](C)(C)C
118 to 119	CC(C)Cc1nn(C)c(=O)c2cc(Cc3cccnc3)sc12
155 to 157	CCOc1c(CN2CCCCC2)c2c(c3c1OC(C)(C)C3)C(c1cccc(NC(=O)c3ccccc3C(=O)O)c1)=NC(C)(C)C2
114 to 116	CCCc1c(OCCCS(=O)(=O)c2ccc(C(=O)OC)cn2)ccc(C(C)=O)c1O
122 to 123	COc1ccc2cc([C@H](C)C(=O)OCC(=O)O)ccc2c1
204 to 205	CCC(=O)Nc1cc(-c2c(-c3ccc(Cl)cc3)nc3cccnn23)ccn1
256	Cc1cncn1-c1ccc(O)cc1
294 to 295	CC(=O)Nn1c(=S)[nH]c2cc(C(F)(F)F)ccc21
156	CC(=O)OCC1OC(Oc2ncn(Cc3ccc([N+](=O)[O-])cc3)c2C(N)=O)C(OC(C)=O)C1OC(C)=O (stereo unspecified)
155 to 156	O=C(O)CCc1cn(Cc2ccc(OCc3ccc(-c4ccccc4)nc3)cc2)nc1-c1ccccc1
122 to 124	Clc1ccc2cc(OC3CCCCO3)ccc2n1 (stereo unspecified)
142 to 144	CC(C)(C)c1ccc(C(O)CCCN2CCC(C3(O)c4ccccc4CCc4ccccc43)CC2)cc1 (stereo unspecified)
145 to 147	CCOC(=O)c1c(C=O)c2ccc3sc4ccccc4c3c2n1C
110 to 112	c1ccc(-n2c(-c3cccnc3)nc3ccccc32)cc1
139 to 142	CC(CCn1cnc2ccccc21)NCC(O)COc1ccc(CC(N)=O)cc1 (stereo unspecified)

melting point [°C]	Structure (SMILES)
160 to 161	OC1CSC(Oc2cncc(C(F)(F)F)c2)C(O)C1O (stereo unspecified)
236 to 240	CCOC(=O)c1cnc2c(-c3ccc(Cc4cccc(OC)c4)cc3)cnn2c1O
145 to 147	COC(=O)c1ccc(OCC(=O)c2cc3cc(Cl)ccc3o2)cc1
178 to 181	COc1cc(C(=O)Cc2nnnn2C)c(N)cc1Cl
62 to 63	CCOC(=O)c1sc(SC(C)C)c2c1CCc1nc(C)oc1-2
182 to 183	CC(OC1CCCN(Cc2ncn[nH]2)C1c1ccccc1)c1cc(C(F)(F)F)cc(C(F)(F)F)c1 (stereo unspecified)
174 to 178	Cc1ccc2c(=O)c3cc(C(F)(F)F)ccc3sc2c1
138 to 140	NCCCCn1cnc(-c2ccc(F)cc2)c1
184 to 186	CCn1ncc2c(-c3cncc(C)c3)c(CCC(=O)O)c(-c3ocnc3C)nc21
97 to 99	CCCCCCCCCCCc1cccc(Oc2c(N)nc(N)nc2CC)c1
146	O=C(NCC1CCN(CC2(C(=O)O)CCOCC2)CC1)N1C(=O)C2(CCCC2)c2ccccc21
207 to 208	COc1ccc(N2CCN(Cc3ccc(NC(=O)/C=C/c4cccc(-c5ccc(C)cc5)c4)cc3)CC2)cc1
60 to 65	CC(=O)N1CCC(Oc2c(F)c(F)c(F)c(F)c2F)CC1
65 to 67	CC(C)NC(=O)NCCSCc1ccc(CN(C)C)o1
168 to 170	CCOc1cc2cc3c(Nc4cc(OC)c(Cl)cc4C)c(C#N)cnc3cc2cc1OCCN(CC(N)=O)CC(N)=O
235 to 238	Cc1ccc(C(=O)Nc2nc(=O)c3ccccc3n2C)cc1
273 to 276	Oc1nc(-c2cccnc2)sc1-c1ccccc1
206 to 209	CCOC(=O)c1cn(-c2nc(NC(C)C)c(F)cc2F)c2c(Cl)c(F)c(F)cc2c1=O
299 to 300	CC(=O)Nc1ccc(-c2ccc3nc(-c4cccnc4N)n(-c4ccc(CNC(=O)c5ccccc5)cc4)c3n2)cc1
303 to 305	O=c1c2c(Cc3cccc(C(F)(F)F)c3)n[nH]c2c2cccnc2n1-c1ccccc1
178 to 179	CC(=O)NS(=O)(=O)c1ccc(C2=C(c3cccc(F)c3)C(=O)C(C)(C)O2)cc1
166 to 167	CC(=O)c1cc(C)c(OCC(=O)O)c(C)c1
205 to 208	CCC1C(=O)Nc2cccc3c2N1C(=O)C3c1ccccc1 (stereo unspecified)
140 to 141	CC1N=C(N(C)N)NN=C1c1ccccc1 (stereo unspecified)
96	Cc1cc(-n2ccnc2)c2cccc(OCc3c(Cl)ccc(S(=O)(=O)N4CCC[C@H]4C(=O)NCC4CCN(CCOCCO)CC4)c3Cl)c2n1

Further lines, the compound ahead of its results:

Structure (SMILES)	melting point [°C]
CC1CN(c2ncc(C(=O)N(C)c3cccc(C(F)(F)F)c3)c(N)n2)C(=O)N1 (stereo unspecified)	237 to 238
Cc1ccc([C@H](CC(=O)O)NC(=O)Nc2c(O)ccn(Cc3ccccc3Cl)c2=O)cc1	113 to 115
CCOC(=O)c1cc(=O)c2c(OCC(O)COc3cccc(O)c3C(C)=O)cccc2o1 (stereo unspecified)	145 to 148
COc1nc(C)nc(N2CCc3ccccc3CC2)c1[N+](=O)[O-]	123 to 128
O=C1N(Cc2ccncc2)Cc2cccnc2N1c1cccc([N+](=O)[O-])c1	169 to 170
CCOc1ccc(-c2ccc(-c3ccc(C4CCC(c5c(F)cccc5F)=N4)cc3)cc2)s1 (stereo unspecified)	128 to 134
OC(c1cc(Cl)cc(Cl)c1)c1cc(Cl)cc(Cl)c1	126
N#Cc1ccc(N2CCCC2)c2ccccc12	109 to 110
COC(=O)Nc1nc2ccccc2n1CCCN1CCN(C(c2ccccc2)c2ccccc2)CC1	138
CCCCCCCCCCCCSCC(O)CO (stereo unspecified)	53 to 54
COc1cccc(CNC(=O)c2nc3scc(-c4ccccc4)c3c(=O)[nH]2)c1	177 to 178
COc1ccc(C(CC(=O)O)N2C(=O)c3cc(Cl)c(Cl)cc3C2=O)cc1 (stereo unspecified)	182 to 185
CC(C)NC(=O)c1c(NC(=O)c2cc(C(F)(F)F)nn2-c2ncccc2Cl)ccc2cccnc12	225 to 226
CCC(CC)CNC(=O)c1cccc(CN2C(=O)C3(COc4cc5c(cc43)CCO5)c3ccccc32)c1 (stereo unspecified)	105 to 106
CCN(Cc1ccc2nc(C)[nH]c(=O)c2c1)C(N)=S	186 to 187
C=CC(C)(CCC=C(C)C)OCC(=O)c1cc(C(C)C)c(O)c(C(C)C)c1 (stereo unspecified)	71 to 72
COC(=O)C(c1ccccc1)N1C(=O)C(N=[N+]=[N-])C1Sc1nnc(C)s1 (stereo unspecified)	81 to 84
O=C1N(c2c(Cl)cccc2Cl)Cc2cnc(Nc3ccccc3)nc2N1c1ccccc1	138
C=C(C)C(=O)OC(C1CCCC1)C(O)(C(F)(F)F)C(F)(F)F (stereo unspecified)	59
CC(C(N)=O)c1ccc(-c2ccc(F)cc2F)c(F)c1 (stereo unspecified)	136 to 137
Cc1cc(C(C)(C)C)c(O)c(C)c1COC(=O)c1ccc(C(=O)OCc2c(C)cc(C(C)(C)C)c(O)c2C)cc1	227 to 230
Cn1ccnc1S(=O)(=O)C(C)(Cc1ccc(-c2ccccc2)cc1)C(=O)NO (stereo unspecified)	112
Cc1ccc(-c2[nH]c(C3CCCCC3)nc2C(=O)O)cc1	205 to 206

Structure (SMILES)	melting point [°C]
ICCCCCOc1ccc(C2=C(c3ccccc3)CCCc3ccccc32)cc1	104 to 106
CCCCCCCCCCCCCCCC(=O)OC1CN(C)C2(C1)C1CC3CC(C1)CC2C3 (stereo unspecified)	50 to 53
NC(C(=O)O)C(O)CC(=O)O (stereo unspecified)	137 to 138
COc1cc2c(Cl)c(C#N)cnc2c(OC)c1OC	161 to 163
N#CCCCOc1ccc(C(=O)Nc2ccc(-n3nc(-c4cccnc4)cc3C#N)cc2)cn1	190 to 191
CC(=O)Nc1nc(CCCCl)cs1	110 to 112
N#CC1CN1C(=O)CNC(N)=O (stereo unspecified)	110 to 114
CC(C)(C)OC(=O)NCCOC(=O)COc1ccc(CCCCN(C(=N)N)C(=O)c2nc(Cl)c(N)nc2N)cc1	80 to 82
CC12CC(N3CCOCC3)C(O)CC1CCC1C2CCC2(C)C(O)C(N3CCCCC3)CC12 (stereo unspecified)	222 to 229
COc1cccc(OC)c1-c1ccc(C[C@H](NC(=S)c2c(Cl)cccc2Cl)C(=O)O)cc1	180
FC(F)(F)c1ccc(NC(=S)Nc2ncccc2OCc2ccccc2)cc1	165 to 167
CC1CCN(C(=O)[C@H](CCCCNc2ccccn2)NS(=O)(=O)c2ccc3ccccc3c2)CC1	127 to 129
Fc1ccc(-c2csc(-c3cn([C@H]4CN5CCC4CC5)nn3)c2)cn1	136
N#Cc1cccc(NC(=O)NC2N=C(c3ccccc3F)c3ccccc3N(CC(=O)N3CC4CCC(CC4)C3)C2=O)c1 (racemic)	188 to 195
CC(=O)NCCCC(=O)c1ccc(Cl)cc1C(CC(=O)O)c1ccccc1 (stereo unspecified)	114 to 116
CC(=O)C(=O)Oc1c(C)cc(Nc2ccn(-c3ccccc3)n2)cc1C	123 to 125
Nc1ccc2c(c1)CC(CC(=O)O)C2=O (stereo unspecified)	192 to 194
O=c1[nH]c2cc([N+](=O)[O-])c(-n3ccc(C=NO)c3)cc2n(C2CCCCC2)c1=O	234
COC(=O)c1cc(N2C(=O)C3=C(CCCC3)C2=O)ccc1Cl	113 to 115
Cc1ccc(-c2cncc(CN3CC=C(c4ccccc4)CC3)c2)cc1	133 to 135
COc1ccc(CSCC(C)C(=O)O)cc1 (stereo unspecified)	74 to 82
Cc1cc(NC(=O)NN(c2ccccc2)c2cccc(C#N)c2)ccc1N1CCCCC1=O	161 to 162
CCCCCCCCCCCCCOCCCCO	26 to 29
